Measured values published in patent publication EP0427078A1, “Folinic acid-cyclodextrin inclusion compound” (MAGIS FARMACEUTICI S.p.A., priority 1989, dated 1991).

Key:
[1] = assay type: physicochemical
[2] = Acute toxicity (LD50) in the mouse; settings: in vivo, read-out: LD₅₀

Nc1nc(=O)c2c([nH]1)NCC(CNc1ccc(C(=O)NC(CCC(=O)O)C(=O)O)cc1)N2C=O (stereo not shown) [Calcium folinate, calcium folinate]
STABILITY AT pH 2 MICROBIOLOGICAL TITRE AFTER 3 MONTHS [1]: 40%
STABILITY AT pH 2 MICROBIOLOGICAL TITRE AFTER 6 MONTHS [1]: 20%
STABILITY AT pH 2 MICROBIOLOGICAL TITRE TIME 0 [1]: 100%
LD50 [2]: > 7000 mg/kg
